Test results from patent US20250127903A1, “SUBSTITUTED PIPERIDINE DEGRONIMERS FOR TARGET PROTEIN DEGRADATION” (priority 2016, published 2025).

Target: CRBN-DDB1 (Homo sapiens (Human), UniProt Q96SW2)
Experiment: CRBN-DDB1 fluorescence polarization (FP) binding assay
Details: Table 2 Degrons; displacement of Thalidomide-Alexa Fluor or Pomalidomide-fluorescein probe
Experimental: Measuring compound ligand binding to CRBN-DDB1 was carried out using an established sensitive and quantitative in vitro fluorescence polarization (FP) based binding assay. […] Compounds were dispensed from serially diluted DMSO stock into black 384-well compatible fluorescence polarization plates using an Echo acoustic dispenser. […] Matching control wells excluding CRBN-DDB1 were used to correct for background fluorescence. Plates were read on an Envision plate reader with appropriate FP filter sets.

CRBN-DDB1, sequence (Q96SW2 whole entry, looked up): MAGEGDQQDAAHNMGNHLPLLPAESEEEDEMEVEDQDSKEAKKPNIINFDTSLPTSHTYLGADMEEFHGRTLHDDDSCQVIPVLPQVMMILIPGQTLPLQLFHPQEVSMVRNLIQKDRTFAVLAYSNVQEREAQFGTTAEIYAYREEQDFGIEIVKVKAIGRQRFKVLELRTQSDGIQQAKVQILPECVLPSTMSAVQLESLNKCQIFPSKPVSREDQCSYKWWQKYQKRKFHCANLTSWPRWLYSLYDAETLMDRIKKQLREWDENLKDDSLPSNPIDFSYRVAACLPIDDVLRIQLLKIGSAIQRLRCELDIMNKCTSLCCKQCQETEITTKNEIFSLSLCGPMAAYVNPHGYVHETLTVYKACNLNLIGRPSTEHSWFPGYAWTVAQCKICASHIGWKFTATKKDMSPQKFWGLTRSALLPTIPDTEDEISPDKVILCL
CRBN-DDB1, sequence (Q16531 whole entry partner, looked up): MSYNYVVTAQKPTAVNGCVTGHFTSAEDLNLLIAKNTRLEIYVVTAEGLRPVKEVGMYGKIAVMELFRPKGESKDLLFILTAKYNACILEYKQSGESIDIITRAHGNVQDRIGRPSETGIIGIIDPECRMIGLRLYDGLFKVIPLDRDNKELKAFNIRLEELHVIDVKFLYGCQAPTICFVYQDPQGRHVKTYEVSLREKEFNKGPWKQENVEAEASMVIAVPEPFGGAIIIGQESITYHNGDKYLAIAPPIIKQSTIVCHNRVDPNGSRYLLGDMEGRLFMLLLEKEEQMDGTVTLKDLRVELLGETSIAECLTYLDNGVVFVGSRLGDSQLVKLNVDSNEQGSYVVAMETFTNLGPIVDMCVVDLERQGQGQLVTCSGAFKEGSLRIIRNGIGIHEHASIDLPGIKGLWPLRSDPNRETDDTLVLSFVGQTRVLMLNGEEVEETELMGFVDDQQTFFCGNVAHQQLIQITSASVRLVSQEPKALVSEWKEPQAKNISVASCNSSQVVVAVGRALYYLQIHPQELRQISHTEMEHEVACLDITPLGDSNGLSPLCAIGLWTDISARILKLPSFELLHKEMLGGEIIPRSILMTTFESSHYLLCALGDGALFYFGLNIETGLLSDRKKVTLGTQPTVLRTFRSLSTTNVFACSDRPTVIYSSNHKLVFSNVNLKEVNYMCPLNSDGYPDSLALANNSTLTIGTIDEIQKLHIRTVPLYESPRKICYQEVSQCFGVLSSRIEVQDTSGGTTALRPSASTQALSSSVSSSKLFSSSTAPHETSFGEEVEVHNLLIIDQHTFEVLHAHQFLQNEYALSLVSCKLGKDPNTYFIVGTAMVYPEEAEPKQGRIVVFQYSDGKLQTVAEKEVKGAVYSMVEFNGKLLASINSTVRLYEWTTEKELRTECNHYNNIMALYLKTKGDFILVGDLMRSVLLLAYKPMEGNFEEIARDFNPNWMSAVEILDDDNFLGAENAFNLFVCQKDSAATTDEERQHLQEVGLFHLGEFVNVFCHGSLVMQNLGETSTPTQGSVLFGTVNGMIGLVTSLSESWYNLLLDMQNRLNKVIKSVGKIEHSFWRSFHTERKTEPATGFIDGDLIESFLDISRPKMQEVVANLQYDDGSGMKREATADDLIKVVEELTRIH

CC(C)(C)OC(=O)N1CCC(n2cc(CNc3cccc4c3C(=O)N(C3CCC(=O)NC3=O)C4=O)nn2)CC1 (stereo not shown) [Compound 264, tert-Butyl 4-(4-(((2-(2,6-Dioxopiperidin-3-yl)-1,3-dioxoisoindolin-4-yl)amino)methyl)-1H-1,2,3-triazol-1-yl)piperidine-1-carboxylate]
Kd: < 10 µM
